We go through 8 compounds from patent US4187245A, “Hydroxypropylene-amino-phosphonic-sulfonic acids” (Petrolite Corporation, priority 1978, dated 1980).

Test [1] in a line: Calcium Scale Inhibition Test. The note with it: 180° F., samples at 2 and 4 hours. Here is the method:
Calcium Scale Inhibition Test
The procedure utilized to determine the effectiveness of scale inhibitors in regard to calcium scale is as follows:
Several 50 ml. samples of a 0.04 sodium bicarbonate solution are placed in 100 ml. bottles. To these solutions is added the inhibitor in various known concentrations. 50 ml. samples of a 0.02 M CaCl2 solution are then added.
A total hardness determination is then made on the 50--50 mixture utilizing the well known Schwarzenbach titration. The samples are placed in a water bath and heated at 180° F. 10 ml. samples are taken from each bottle at 2 and 4 hour periods. These samples are filtered through millipore filters and the total hardness of the filtrates are determined by titration. [formula]

The conditions of test [2]: prior-art background; cited from earlier work.

Where a name gives a salt, the structure may show the parent alone.

As to `O=S(=O)(O)CC(O)CNCCNCC(O)CS(=O)(=O)O` (stereo not drawn) [Example 8], the “% Inhibition (Calcium Scale Inhibition)” value in test [1] (50 ppm) amounted to 45%.

Consider `O=C(O)CN(CCN(CC(=O)O)CC(=O)O)CC(=O)O` [ethylenediamine tetracetic acid salts], for which the threshold activities entry in test [2] is recorded as “no threshold activities”.

In the case of `NCCNCCNCC(O)CS(=O)(=O)O` (stereo not drawn) [Example 9], the “% Inhibition (Calcium Scale Inhibition)” value in test [1] (50 ppm) was 45%.

For the compound `O=P(O)(O)CN(CCN(CC(O)CS(=O)(=O)O)CP(=O)(O)O)CC(O)CS(=O)(=O)O` (stereo not drawn) [Example 17], the “% Inhibition (Calcium Scale Inhibition)” value came out at 72% in test [1] (15 ppm), 96% in test [1] (25 ppm) and 100% in test [1] (50 ppm).

`NCCNCC(O)CS(=O)(=O)O` (stereo not drawn) [Example 7]: in test [1] (50 ppm), the “% Inhibition (Calcium Scale Inhibition)” value is on record as 50%.

In the case of `O=P(O)(O)CN(CCN(CP(=O)(O)O)CP(=O)(O)O)CC(O)CS(=O)(=O)O` (stereo not drawn) [Example 16], the results for the “% Inhibition (Calcium Scale Inhibition)” value in test [1] (10 ppm) and in test [1] (25 ppm) were 91% and 100%, respectively.

In the case of `O=S(=O)(O)CC(O)CNCCNCCNCC(O)CS(=O)(=O)O` (stereo not drawn) [Example 10], the “% Inhibition (Calcium Scale Inhibition)” value in test [1] (25 ppm) stood at 45%.

For the compound `O=P(O)(O)CN(CCN(CC(O)CS(=O)(=O)O)CP(=O)(O)O)CCN(CC(O)CS(=O)(=O)O)CP(=O)(O)O` (stereo not drawn) [Example 19], the figures for the “% Inhibition (Calcium Scale Inhibition)” value in test [1] (25 ppm) and in test [1] (50 ppm) were 86% and 100%, respectively.
